Results taken from patent publication US10307357B2, “Prebiotic oral care compositions containing an alkyl glycoside” (COLGATE-PALMOLIVE COMPANY, priority 2013, dated 2019).

Test system: beneficial oral and pathogenic oral bacteria
Assay: Twenty-four hour optical density, conclusion over the panel
Assay type: cell-based
Conditions: at concentrations of 10, 20 and 25 μmol/ml; threshold 1.25
Source text: Substrates that were able to increase the growth (or maximal growth density or extent of growth) of at least one of the above beneficial bacteria while not or only minimally increasing the growth (or maximal growth density) of the pathogenic bacteria are considered to be prebiotic compounds. The extent of growth of the tested bacteria in response to selected glycosides (β-methyl-D-galactoside and α-methyl-D-galactoside) was investigated by setting up growth curves in a nutritionally rich medium (brain heart infusion broth (BHI), Oxoid), over 24 hours. […] For each combination of bacterium/glycoside, and for each of their respective controls (i.e. the particular bacterium in the nutritionally rich medium with no glycoside), the optical density was measured at 630 nm (OD630) at 0 h and 24 h (Thermo Scientific Multiskan Ascent). Additionally, the OD630 for combinations of bacterium/glycosides grown in a 5% CO2 environment were also measured every hour between 0 h and 9 h. […] For each day and for each combination, the average (mean) of the values obtained (as detailed above) for the four technical replicas was calculated to provide a single value for each combination on each day. […]

Structure (SMILES): CO[C@@H]1O[C@H](CO)[C@H](O)[C@H](O)[C@H]1O [β-methyl-D-galactoside]
- prebiotic effect (extent of growth), in words: exhibited prebiotic effects
